Assay results reported in PubChem BioAssay (NCI).
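Each compound was tested at five concentrations against cells in 96-well plates for 48 hours. Abbreviation: GI50, concentration required for 50% inhibition of growth. TGI is the concentration that stops growth completely.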

These compounds were tested on UACC-257 melanoma (assay: inhibition of tumour cell growth, NCI panel, 48 h).

SMILES | TGI [µM] | GI50 [µM]
CC(=O)OC1C(Oc2c(C)cc3c(c2O)[C@@H](C)CC[C@@H]3[C@@H](C)CCC=C(C)C)OCC(O)C1O (stereo partly drawn) | 35.6 | 
Cc1ccc2c(c1)CC1(Cc3ccccc3C1=O)C2=O (stereo not drawn) | > 100 | 
Cc1sc2nc(-c3cccc([N+](=O)[O-])c3)c(/C=N/N=C(N)N)n2c1C | 3.06 | 
COc1cccc2c1C(=O)c1c(O)c3c(c(O)c1C2=O)CC(O)(C(=O)CO)CC3OC1CC(N2CCOCC2C#N)C(O)C(C)O1 (stereo not drawn) | < 0.0001 | 
CN1CCN(CCCNc2nc3ccc(Oc4ccc(NC(=O)Nc5cc(C(F)(F)F)ccc5F)cc4)cc3[nH]2)CC1 | 7.93 | 4.02
CCO/C=N\C1=C(C#N)SC2=N/C(=C\c3ccc(OC)cc3)C(=O)N21 | > 100 | 

Each compound was assayed on HCT-116 colon (assay: inhibition of tumour cell growth, NCI panel, 48 h).

SMILES | TGI [µM] | GI50 [µM]
CC(=O)OC1C(Oc2c(C)cc3c(c2O)[C@@H](C)CC[C@@H]3[C@@H](C)CCC=C(C)C)OCC(O)C1O (stereo partly drawn) | 32.2 | 
Cc1ccc2c(c1)CC1(Cc3ccccc3C1=O)C2=O (stereo not drawn) | > 100 | 
CSc1cc(Cl)c(C)cc1S(=O)(=O)NC(=O)NNc1cccc(C(F)(F)F)n1 | > 100 | 
COc1cccc2c1C(=O)c1c(O)c3c(c(O)c1C2=O)CC(O)(C(=O)CO)CC3OC1CC(N2CCOCC2C#N)C(O)C(C)O1 (stereo not drawn) | 12.2 | 
CN1CCN(CCCNc2nc3ccc(Oc4ccc(NC(=O)Nc5cc(C(F)(F)F)ccc5F)cc4)cc3[nH]2)CC1 | 7.99 | 4.28
CCO/C=N\C1=C(C#N)SC2=N/C(=C\c3ccc(OC)cc3)C(=O)N21 | > 100 | 

Each compound was assayed on MDA-MB-231 breast (assay: inhibition of tumour cell growth, NCI panel, 48 h).

SMILES | TGI [µM] | GI50 [µM]
CC(=O)OC1C(Oc2c(C)cc3c(c2O)[C@@H](C)CC[C@@H]3[C@@H](C)CCC=C(C)C)OCC(O)C1O (stereo partly drawn) | 38.7 | 
Cc1ccc2c(c1)CC1(Cc3ccccc3C1=O)C2=O (stereo not drawn) | > 100 | 
CSc1cc(Cl)c(C)cc1S(=O)(=O)NC(=O)NNc1cccc(C(F)(F)F)n1 | > 100 | 
COc1cccc2c1C(=O)c1c(O)c3c(c(O)c1C2=O)CC(O)(C(=O)CO)CC3OC1CC(N2CCOCC2C#N)C(O)C(C)O1 (stereo not drawn) | < 0.0001 | 
CN1CCN(CCCNc2nc3ccc(Oc4ccc(NC(=O)Nc5cc(C(F)(F)F)ccc5F)cc4)cc3[nH]2)CC1 | 7.65 | 3.97
CCO/C=N\C1=C(C#N)SC2=N/C(=C\c3ccc(OC)cc3)C(=O)N21 | > 100 | 

What follows are compounds tested on HL-60(TB) leukemia (assay: inhibition of tumour cell growth, NCI panel, 48 h).

SMILES | TGI [µM] | GI50 [µM]
CC(=O)OC1C(Oc2c(C)cc3c(c2O)[C@@H](C)CC[C@@H]3[C@@H](C)CCC=C(C)C)OCC(O)C1O (stereo partly drawn) | 41.7 | 
Cc1ccc2c(c1)CC1(Cc3ccccc3C1=O)C2=O (stereo not drawn) | > 100 | 
Cc1sc2nc(-c3cccc([N+](=O)[O-])c3)c(/C=N/N=C(N)N)n2c1C | 3.63 | 
COc1cccc2c1C(=O)c1c(O)c3c(c(O)c1C2=O)CC(O)(C(=O)CO)CC3OC1CC(N2CCOCC2C#N)C(O)C(C)O1 (stereo not drawn) | < 0.0001 | 
CN1CCN(CCCNc2nc3ccc(Oc4ccc(NC(=O)Nc5cc(C(F)(F)F)ccc5F)cc4)cc3[nH]2)CC1 | 10.3 | 5.2
CCO/C=N\C1=C(C#N)SC2=N/C(=C\c3ccc(OC)cc3)C(=O)N21 | > 100 | 

What follows are compounds tested on HT29 colon (assay: inhibition of tumour cell growth, NCI panel, 48 h).

SMILES | TGI [µM] | GI50 [µM]
CC(=O)OC1C(Oc2c(C)cc3c(c2O)[C@@H](C)CC[C@@H]3[C@@H](C)CCC=C(C)C)OCC(O)C1O (stereo partly drawn) | 27.6 | 
Cc1ccc2c(c1)CC1(Cc3ccccc3C1=O)C2=O (stereo not drawn) | > 100 | 
Cc1sc2nc(-c3cccc([N+](=O)[O-])c3)c(/C=N/N=C(N)N)n2c1C | 2.98 | 
CSc1cc(Cl)c(C)cc1S(=O)(=O)NC(=O)NNc1cccc(C(F)(F)F)n1 | > 100 | 
CN1CCN(CCCNc2nc3ccc(Oc4ccc(NC(=O)Nc5cc(C(F)(F)F)ccc5F)cc4)cc3[nH]2)CC1 | 7.93 | 4.09
CCO/C=N\C1=C(C#N)SC2=N/C(=C\c3ccc(OC)cc3)C(=O)N21 | > 100 | 

Each compound was assayed on RPMI-8226 leukemia (assay: inhibition of tumour cell growth, NCI panel, 48 h).

SMILES | TGI [µM] | GI50 [µM]
Cc1ccc2c(c1)CC1(Cc3ccccc3C1=O)C2=O (stereo not drawn) | > 100 | 
CN1CCN(CCCNc2nc3ccc(Oc4ccc(NC(=O)Nc5cc(C(F)(F)F)ccc5F)cc4)cc3[nH]2)CC1 | 14 | 5.88
CCO/C=N\C1=C(C#N)SC2=N/C(=C\c3ccc(OC)cc3)C(=O)N21 | > 100 | 

These compounds were tested on SNB-75 CNS (assay: inhibition of tumour cell growth, NCI panel, 48 h).

SMILES | TGI [µM] | GI50 [µM]
Cc1ccc2c(c1)CC1(Cc3ccccc3C1=O)C2=O (stereo not drawn) | > 100 | 
CSc1cc(Cl)c(C)cc1S(=O)(=O)NC(=O)NNc1cccc(C(F)(F)F)n1 | > 100 | 
CN1CCN(CCCNc2nc3ccc(Oc4ccc(NC(=O)Nc5cc(C(F)(F)F)ccc5F)cc4)cc3[nH]2)CC1 | 13.2 | 5.14
CCO/C=N\C1=C(C#N)SC2=N/C(=C\c3ccc(OC)cc3)C(=O)N21 | 46.6 | 

The compounds below were run on A498 renal (assay: inhibition of tumour cell growth, NCI panel, 48 h).

SMILES | TGI [µM] | GI50 [µM]
CC(=O)OC1C(Oc2c(C)cc3c(c2O)[C@@H](C)CC[C@@H]3[C@@H](C)CCC=C(C)C)OCC(O)C1O (stereo partly drawn) | 36.5 | 
Cc1ccc2c(c1)CC1(Cc3ccccc3C1=O)C2=O (stereo not drawn) | > 100 | 
Cc1sc2nc(-c3cccc([N+](=O)[O-])c3)c(/C=N/N=C(N)N)n2c1C | 2.88 | 
CSc1cc(Cl)c(C)cc1S(=O)(=O)NC(=O)NNc1cccc(C(F)(F)F)n1 | > 100 | 
CN1CCN(CCCNc2nc3ccc(Oc4ccc(NC(=O)Nc5cc(C(F)(F)F)ccc5F)cc4)cc3[nH]2)CC1 | > 18.9 | 2.93
CCO/C=N\C1=C(C#N)SC2=N/C(=C\c3ccc(OC)cc3)C(=O)N21 | > 100 | 

These compounds were tested on HS 578T breast (assay: inhibition of tumour cell growth, NCI panel, 48 h).

SMILES | TGI [µM] | GI50 [µM]
CC(=O)OC1C(Oc2c(C)cc3c(c2O)[C@@H](C)CC[C@@H]3[C@@H](C)CCC=C(C)C)OCC(O)C1O (stereo partly drawn) | 47.4 | 
Cc1ccc2c(c1)CC1(Cc3ccccc3C1=O)C2=O (stereo not drawn) | > 100 | 
CSc1cc(Cl)c(C)cc1S(=O)(=O)NC(=O)NNc1cccc(C(F)(F)F)n1 | > 100 | 
CN1CCN(CCCNc2nc3ccc(Oc4ccc(NC(=O)Nc5cc(C(F)(F)F)ccc5F)cc4)cc3[nH]2)CC1 | 8.26 | 3.67
CCO/C=N\C1=C(C#N)SC2=N/C(=C\c3ccc(OC)cc3)C(=O)N21 | > 100 | 

What follows are compounds tested on TK-10 renal (assay: inhibition of tumour cell growth, NCI panel, 48 h).

SMILES | TGI [µM] | GI50 [µM]
Cc1ccc2c(c1)CC1(Cc3ccccc3C1=O)C2=O (stereo not drawn) | > 100 | 
Cc1sc2nc(-c3cccc([N+](=O)[O-])c3)c(/C=N/N=C(N)N)n2c1C | 2.84 | 
CN1CCN(CCCNc2nc3ccc(Oc4ccc(NC(=O)Nc5cc(C(F)(F)F)ccc5F)cc4)cc3[nH]2)CC1 | 9.07 | 3.93
CCO/C=N\C1=C(C#N)SC2=N/C(=C\c3ccc(OC)cc3)C(=O)N21 | > 100 | 

Each compound was assayed on MDA-MB-435 (assay: inhibition of tumour cell growth, NCI panel, 48 h).

SMILES | TGI [µM] | GI50 [µM]
CC(=O)OC1C(Oc2c(C)cc3c(c2O)[C@@H](C)CC[C@@H]3[C@@H](C)CCC=C(C)C)OCC(O)C1O (stereo partly drawn) | 28.1 | 
Cc1ccc2c(c1)CC1(Cc3ccccc3C1=O)C2=O (stereo not drawn) | > 100 | 
Cc1sc2nc(-c3cccc([N+](=O)[O-])c3)c(/C=N/N=C(N)N)n2c1C | 3.18 | 
CSc1cc(Cl)c(C)cc1S(=O)(=O)NC(=O)NNc1cccc(C(F)(F)F)n1 | > 100 | 
COc1cccc2c1C(=O)c1c(O)c3c(c(O)c1C2=O)CC(O)(C(=O)CO)CC3OC1CC(N2CCOCC2C#N)C(O)C(C)O1 (stereo not drawn) | < 0.0001 | 
CN1CCN(CCCNc2nc3ccc(Oc4ccc(NC(=O)Nc5cc(C(F)(F)F)ccc5F)cc4)cc3[nH]2)CC1 | 7.78 | 4.1
CCO/C=N\C1=C(C#N)SC2=N/C(=C\c3ccc(OC)cc3)C(=O)N21 | > 100 | 

Each compound was assayed on 786-0 renal (assay: inhibition of tumour cell growth, NCI panel, 48 h).

SMILES | TGI [µM] | GI50 [µM]
CC(=O)OC1C(Oc2c(C)cc3c(c2O)[C@@H](C)CC[C@@H]3[C@@H](C)CCC=C(C)C)OCC(O)C1O (stereo partly drawn) | 32.8 | 
Cc1ccc2c(c1)CC1(Cc3ccccc3C1=O)C2=O (stereo not drawn) | > 100 | 
Cc1sc2nc(-c3cccc([N+](=O)[O-])c3)c(/C=N/N=C(N)N)n2c1C | 3.22 | 
CSc1cc(Cl)c(C)cc1S(=O)(=O)NC(=O)NNc1cccc(C(F)(F)F)n1 | > 100 | 
COc1cccc2c1C(=O)c1c(O)c3c(c(O)c1C2=O)CC(O)(C(=O)CO)CC3OC1CC(N2CCOCC2C#N)C(O)C(C)O1 (stereo not drawn) | 5.22 | 
CN1CCN(CCCNc2nc3ccc(Oc4ccc(NC(=O)Nc5cc(C(F)(F)F)ccc5F)cc4)cc3[nH]2)CC1 | 11.9 | 5.26
CCO/C=N\C1=C(C#N)SC2=N/C(=C\c3ccc(OC)cc3)C(=O)N21 | > 100 | 

The compounds below were run on OVCAR-8 ovarian (assay: inhibition of tumour cell growth, NCI panel, 48 h).

SMILES | TGI [µM] | GI50 [µM]
CC(=O)OC1C(Oc2c(C)cc3c(c2O)[C@@H](C)CC[C@@H]3[C@@H](C)CCC=C(C)C)OCC(O)C1O (stereo partly drawn) | 47.4 | 
Cc1ccc2c(c1)CC1(Cc3ccccc3C1=O)C2=O (stereo not drawn) | > 100 | 
Cc1sc2nc(-c3cccc([N+](=O)[O-])c3)c(/C=N/N=C(N)N)n2c1C | 3.23 | 
CSc1cc(Cl)c(C)cc1S(=O)(=O)NC(=O)NNc1cccc(C(F)(F)F)n1 | > 100 | 
CN1CCN(CCCNc2nc3ccc(Oc4ccc(NC(=O)Nc5cc(C(F)(F)F)ccc5F)cc4)cc3[nH]2)CC1 | 13.5 | 5.27
CCO/C=N\C1=C(C#N)SC2=N/C(=C\c3ccc(OC)cc3)C(=O)N21 | > 100 | 

Each compound was assayed on COLO 205 colon (assay: inhibition of tumour cell growth, NCI panel, 48 h).

SMILES | TGI [µM] | GI50 [µM]
CC(=O)OC1C(Oc2c(C)cc3c(c2O)[C@@H](C)CC[C@@H]3[C@@H](C)CCC=C(C)C)OCC(O)C1O (stereo partly drawn) | 30.7 | 
Cc1ccc2c(c1)CC1(Cc3ccccc3C1=O)C2=O (stereo not drawn) | > 100 | 
Cc1sc2nc(-c3cccc([N+](=O)[O-])c3)c(/C=N/N=C(N)N)n2c1C | 3.72 | 
CSc1cc(Cl)c(C)cc1S(=O)(=O)NC(=O)NNc1cccc(C(F)(F)F)n1 | > 100 | 
COc1cccc2c1C(=O)c1c(O)c3c(c(O)c1C2=O)CC(O)(C(=O)CO)CC3OC1CC(N2CCOCC2C#N)C(O)C(C)O1 (stereo not drawn) | < 0.0001 | 
CN1CCN(CCCNc2nc3ccc(Oc4ccc(NC(=O)Nc5cc(C(F)(F)F)ccc5F)cc4)cc3[nH]2)CC1 | 7.97 | 4.5
CCO/C=N\C1=C(C#N)SC2=N/C(=C\c3ccc(OC)cc3)C(=O)N21 | > 100 | 

Each compound was assayed on RXF 393 renal (assay: inhibition of tumour cell growth, NCI panel, 48 h).

SMILES | TGI [µM] | GI50 [µM]
Cc1ccc2c(c1)CC1(Cc3ccccc3C1=O)C2=O (stereo not drawn) | > 100 | 
Cc1sc2nc(-c3cccc([N+](=O)[O-])c3)c(/C=N/N=C(N)N)n2c1C | 3.22 | 
CSc1cc(Cl)c(C)cc1S(=O)(=O)NC(=O)NNc1cccc(C(F)(F)F)n1 | > 100 | 
CN1CCN(CCCNc2nc3ccc(Oc4ccc(NC(=O)Nc5cc(C(F)(F)F)ccc5F)cc4)cc3[nH]2)CC1 | 9.17 | 4.07
